Experimental data: patent publication US8377883B2, “Peptide for anti-angiogenesis and use thereof” (Beijing Institute for Cancer Research, priority 2006, dated 2013)

Experiments:
[1] = test system: human gastric carcinoma BGC-823 cells; assay: Tumor suppression in human gastric carcinoma BGC-823 tumor-bearing nude mice model; assay type: in vivo, Balb/c nude mice; settings: 50 μg/100 μl PBS/injection, angulus oculi medialis vein once every other day, 10 times; vs vehicle, P<0.05
Procedure: In order to confirm the biological effects of FpAT on the growth of human deriving tumors in nude mice in vivo, a tumor suppression experiment was carried out in this example using human gastric carcinoma BGC-823 cells tumor-bearing nude mice model, human lung cancer PG cells tumor-bearing nude mice model and human colon cancer HT-29 cells tumor-bearing nude mice model.
Twenty 5-week old Balb/c nude mice purchased from Animal Center Of Chinese Academy Of Medical Sciences were inoculated subcutaneously in forelimb with human gastric carcinoma BGC-823 cells (National Institute for the Control of Pharmaceutical and Biological Products) (5×10^6/100 μl/mouse), human lung cancer PG cells (National Institute for the Control of Pharmaceutical and Biological Products) (5×10^6/100 μl/mouse) or human colon cancer HT-29 cells (ATCC® Number: HTB-38™) (5×10^6/100 μl/mouse). On the next day after inoculation, each kind of inoculated cells were divided into 2 groups randomly with 5 mice per group. […] Observation was continued for another 20 days after administration was stopped, and during this period the long and short diameters of the tumors were measured with a vernier caliper once every three days, and the volumes of the tumor mass were calculated according to formula ½×long diameter×short diameter^2. […]

[2] = test system: human umbilical vein endothelial cells (HUVECs); assay: MTT proliferation of HUVECs; assay type: cell-based; settings: 25 μg/ml PBS, MTT at 24, 48, 72, 96 hours
Procedure: In order to further investigate the effects of FpAT on the proliferation of various vascular endothelial cells, a cell proliferation suppression experiment was carried out using MTT method in this example.
Human umbilical cord samples (obtained from Beijing Obstetrics & Gynecology Hospital) was digested with 0.1% collagenase I (available from GIBCO BRL company), followed by a centrifugation (1000 rpm, 10 minutes) to collect human umbilical vein endothelial cells (HUVECs). After suspended in 20% FCS/RPMI1640, the cells were transferred into plastic bottles for culture in CO2 incubator (37° C., 5% CO2). Twelve hours later, unattached cells were discarded by changing medium, and then the remaining cells were cultured conventionally with the medium changed every 3 days. The cultured HUVECs were digested with 0.04% trypsin-EDTA, and inoculated into 96-well plate at 2×10^3 cells/well. After 24 hours of culture, the vehicle (PBS) and FpAT (25 μg/ml PBS) were added separately, with 4 parallel wells per group. […] After mixed well, OD value (measured at a wavelength of 570 nm) of each well was measured in a microplate reader, and the cell suppression rates were calculated according to the following formula: cell suppression rate=(mean OD value of blank control group-mean OD value of treated group)/mean OD value of blank control group×100%.

[3] = test system: human umbilical vein endothelial cells (HUVECs); assay: Apoptosis of HUVECs (flow cytometry, DNA Ladder, RT-PCR, Western blotting); assay type: cell-based; settings: 50 μg/ml PBS, 96 hours
Procedure: Human umbilical cord samples (obtained from Beijing Obstetrics & Gynecology Hospital) was digested with 0.1% collagenase I (available from GIBCO BRL company), followed by a centrifugation (1000 rpm, 10 minutes) to collect human umbilical vein endothelial cells (HUVECs). After suspended in 20% FCS/RPMI1640, the cells were transferred into plastic bottles for culture in CO2 incubator (37° C., 5% CO2). Twelve hours later, unattached cells were discarded by changing medium, and then the remaining cells were cultured conventionally with the medium changed every 3 days. The vehicle (PBS) and FpAT (50 μg/ml PBS) were added separately, and the cells were collected at 96 hours. Flow Cytometry: the cells were digested with 0.04% trypsin-EDTA, collected and washed 3 times with PBS; the cells were suspended by adding 200 μl PBS and aspirated gently to avoid formation of cell mass. 800 μl cold absolute alcohol was added, and then the cells was fixed at 4° C. overnight; and after a centrifugation at 1000×g for 5 min at 4° C., and the supernatant were discarded. The cells were washed twice with PBS, re-suspended with 200 μl PBS containing RNaseA at a concentration of 1 mg/ml, and incubated at 37° C. for 30 minutes. PI staining solution (final concentration of 50 μg/ml) was added, and the well mixed cells were subjected to a reaction at 4° C. for 30 minutes in the dark. The detection was performed on a flow cytometer. DNA Ladder analysis: the cells differently treated (PBS and FpAT) were collected by a centrifugation at 1000 rpm for 5 minutes, and the cells were lysed with lysis solution (10 mM Tris-HCl, 5 mM EDTA, 1% Triton-X 100, 10 mM NaCl, 100 μg/ml protease K), and aspirated repeatedly to cut viscous genomic DNA, which theoretically generates DNA fragments in a uniform size of 20 to 30 kb; phenols and chloroform were used to extract, and after precipitated with absolute ethanol, the total DNA were dissolved in TE or water, and treated with Rnase A at 37° C. for 1˜2 hours. Five microliters was taken for an electrophoresis on 1.8% agarose gel. […]

In the case of “H2N-Asp-Ser-Gly-Glu-Gly-Asp-Phe-Leu-Ala-Glu-Gly-Gly-Gly-Val-Arg-COOH (H-DSGEGDFLAEGGGVR-OH; listed as Homo sapiens) [FpAT, fibrinopeptide A truncated, carboxyl terminal 15 amino acids of fibrinopeptide A]”, the “growth of human gastric carcinoma BGC-823 cells in nude mice (tumor mass)” value [1] is reported as “could suppress the growths”, the “suppressing rate of HUVEC proliferation” value [2] is reported as 40.1% and the “DNA Ladder in total DNA of HUVECs” value [3] is reported as “presence of plenty of DNA Ladder”. For the same substance, the “apoptosis of HUVECs by flow cytometry” value ([3]; PI staining) was “presence of an evidence apoptosis peak” and the “effect on cell cycle of HUVECs” value ([3]; flow cytometry) was “no remarkable effects on cell cycle”.
